Measured values: ChEMBL document CHEMBL3399947, “Structure activity relationship of selective GABA uptake inhibitors” (Bioorg Med Chem, 2015)

Experiments:
Assay type in all cases: cell-based
[1] = target: T1, GABA transporter 3 (Mus musculus, UniProt P31649); experiment: Inhibition of mouse mGAT3 expressed in HEK293 cells assessed as inhibition of [3H]GABA uptake after 3 mins incubation by TopCount microplate scintillation counting analysis
T1 sequence (P31649 whole entry): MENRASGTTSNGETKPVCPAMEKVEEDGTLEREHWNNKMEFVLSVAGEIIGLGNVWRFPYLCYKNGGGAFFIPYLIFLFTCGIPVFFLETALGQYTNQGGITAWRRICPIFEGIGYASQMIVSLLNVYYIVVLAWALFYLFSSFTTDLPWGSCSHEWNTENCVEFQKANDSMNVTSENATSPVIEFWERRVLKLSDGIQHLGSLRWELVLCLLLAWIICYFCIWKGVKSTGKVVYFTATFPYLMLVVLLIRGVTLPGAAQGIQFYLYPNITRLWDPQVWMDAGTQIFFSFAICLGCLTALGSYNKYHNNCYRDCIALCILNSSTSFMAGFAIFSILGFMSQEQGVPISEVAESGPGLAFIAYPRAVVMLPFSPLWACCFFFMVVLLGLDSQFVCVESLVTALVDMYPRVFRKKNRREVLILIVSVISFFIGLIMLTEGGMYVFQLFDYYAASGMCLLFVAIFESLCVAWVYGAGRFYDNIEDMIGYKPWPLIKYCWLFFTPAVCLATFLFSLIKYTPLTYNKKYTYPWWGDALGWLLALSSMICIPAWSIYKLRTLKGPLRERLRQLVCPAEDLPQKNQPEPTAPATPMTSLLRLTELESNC

[2] = target: Sodium- and chloride-dependent GABA transporter 1 (Mus musculus, UniProt P31648); experiment: Inhibition of mouse mGAT1 expressed in HEK293 cells assessed as inhibition of [3H]GABA uptake after 3 mins incubation by TopCount microplate scintillation counting analysis
[3] = target: T2, GABA transporter 4 (Mus musculus, UniProt P31650); experiment: Inhibition of mouse mGAT4 expressed in HEK293 cells assessed as inhibition of [3H]GABA uptake after 3 mins incubation by TopCount microplate scintillation counting analysis
T2 sequence (P31650 whole entry): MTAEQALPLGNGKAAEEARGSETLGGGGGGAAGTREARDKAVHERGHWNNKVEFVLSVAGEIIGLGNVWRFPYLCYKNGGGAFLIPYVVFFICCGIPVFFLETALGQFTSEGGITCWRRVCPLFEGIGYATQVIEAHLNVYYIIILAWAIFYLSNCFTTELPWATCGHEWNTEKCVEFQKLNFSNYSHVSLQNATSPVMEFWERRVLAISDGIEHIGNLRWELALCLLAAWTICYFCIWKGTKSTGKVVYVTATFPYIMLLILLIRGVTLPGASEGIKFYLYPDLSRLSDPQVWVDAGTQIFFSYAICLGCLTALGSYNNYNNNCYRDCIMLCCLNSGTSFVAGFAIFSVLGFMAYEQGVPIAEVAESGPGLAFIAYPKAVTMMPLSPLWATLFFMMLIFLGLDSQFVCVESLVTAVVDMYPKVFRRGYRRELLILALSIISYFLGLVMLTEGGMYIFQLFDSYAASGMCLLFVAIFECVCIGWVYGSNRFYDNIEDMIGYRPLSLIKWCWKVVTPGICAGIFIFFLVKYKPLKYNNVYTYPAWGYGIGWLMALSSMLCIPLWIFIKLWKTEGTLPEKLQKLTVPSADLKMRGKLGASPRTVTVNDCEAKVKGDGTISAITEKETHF

[4] = target: T3, GABA transporter 2 (Mus musculus, UniProt P31651); experiment: Inhibition of mouse mGAT2 expressed in HEK293 cells assessed as inhibition of [3H]GABA uptake after 3 mins incubation by TopCount microplate scintillation counting analysis
T3 sequence (P31651 whole entry): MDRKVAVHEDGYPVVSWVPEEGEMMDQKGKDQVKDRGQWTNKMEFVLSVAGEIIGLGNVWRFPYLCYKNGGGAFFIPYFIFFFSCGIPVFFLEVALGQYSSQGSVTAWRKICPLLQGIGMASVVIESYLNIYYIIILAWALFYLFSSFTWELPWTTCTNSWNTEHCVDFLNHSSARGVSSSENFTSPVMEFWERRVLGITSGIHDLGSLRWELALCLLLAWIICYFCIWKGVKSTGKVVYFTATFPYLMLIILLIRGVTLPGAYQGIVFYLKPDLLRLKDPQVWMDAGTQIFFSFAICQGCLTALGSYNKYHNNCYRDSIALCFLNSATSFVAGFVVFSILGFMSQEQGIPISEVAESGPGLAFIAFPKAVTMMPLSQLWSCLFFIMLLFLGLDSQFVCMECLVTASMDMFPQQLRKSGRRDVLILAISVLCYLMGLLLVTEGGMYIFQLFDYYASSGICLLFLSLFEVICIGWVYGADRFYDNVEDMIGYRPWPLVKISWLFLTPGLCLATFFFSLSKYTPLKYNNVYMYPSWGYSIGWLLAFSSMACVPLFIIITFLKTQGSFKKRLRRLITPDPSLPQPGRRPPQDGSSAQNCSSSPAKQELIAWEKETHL

| Compound | IC50 ([1]; read-out: IC50) [µM] | IC50 ([2]; read-out: IC50) [µM] | IC50 ([3]; read-out: IC50) [µM] | IC50 ([4]; read-out: IC50) [µM] | IC50 ([1]; read-out: pIC50 (converted)) [µM] | IC50 ([3]; read-out: pIC50 (converted)) [µM] | IC50 ([2]; read-out: pIC50 (converted)) [µM] | IC50 ([4]; read-out: pIC50 (converted)) [µM] |
| --- | --- | --- | --- | --- | --- | --- | --- | --- |
| Cc1ccsc1C(=CCCN(C)[C@@H]1CCCC[C@@H]1C(=O)O)c1sccc1C | 328 | 917 | 380 | 94.9 |  |  |  |  |
| CCOC(=O)[C@H]1CCCC[C@H]1N(C)CCC=C(c1sccc1C)c1sccc1C | 654 | 604 | 1220 | 201 | 646 |  |  |  |
| CN(CCC=C1c2ccccc2CCc2ccccc21)[C@@H]1CCCC[C@H]1C(=O)O | 966 | 614 | 883 | 119 |  |  |  |  |
| CN(CCC=C1c2ccccc2CCc2ccccc21)[C@H]1CCCC[C@@H]1C(=O)O | 1240 | 962 | 715 | 139 |  | 724 |  |  |
| CN(CCOC(c1ccc(C(F)(F)F)cc1)c1ccc(C(F)(F)F)cc1)[C@@H]1CCCC[C@H]1C(=O)O | 393 | 421 | 299 | 97.1 |  |  |  |  |
| Cc1ccsc1C(=CCCN(C)[C@H]1CCCC[C@H]1C(=O)O)c1sccc1C | 941 | 562 | 289 | 21.6 |  |  |  |  |
| CN(CCON=C(c1ccccc1)c1ccccc1)[C@H]1CCCC[C@H]1C(=O)O | > 1000 | > 1000 | > 1000 | 417 |  |  |  |  |
| CN(CCON=C(c1ccccc1)c1ccccc1)[C@@H]1CCCC[C@@H]1C(=O)O | > 1000 | > 1000 | > 1000 | 443 |  |  |  |  |
| CN(CCC=C1c2ccccc2CCc2ccccc21)[C@H]1CCCC[C@H]1C(=O)O | 1840 | 1360 | 649 | 147 | 1450 |  |  |  |
| CN(CCC=C1c2ccccc2CCc2ccccc21)[C@@H]1CCCC[C@@H]1C(=O)O | 1030 | 1820 | 1450 | 88.9 |  |  |  |  |
| CN(CCOC(c1ccc(C(F)(F)F)cc1)c1ccc(C(F)(F)F)cc1)[C@H]1CCCC[C@H]1C(=O)O | 392 | 631 | 303 | 90 |  |  |  |  |
| CN(CCOC(c1ccc(C(F)(F)F)cc1)c1ccc(C(F)(F)F)cc1)[C@@H]1CCCC[C@@H]1C(=O)O | 336 | 445 | 539 | 63.1 |  |  |  |  |
| CN(CCON=C(c1ccccc1)c1ccccc1)C1CCCC=C1C(=O)O (stereo not drawn) | > 2000 | > 2000 | > 2000 | 814 |  |  |  |  |
| CN(CCC=C1c2ccccc2CCc2ccccc21)C1CCCC=C1C(=O)O (stereo not drawn) | 687 | 425 | 821 | 81 |  |  | 537 |  |
| CN(CCOC(c1ccc(C(F)(F)F)cc1)c1ccc(C(F)(F)F)cc1)C1CCCC=C1C(=O)O (stereo not drawn) | > 1000 | > 1000 | > 1000 | 107 |  |  |  |  |
| Cc1ccsc1C(=CCCN(C)[C@H]1CCCC[C@H]1CO)c1sccc1C | 168 | 215 | 146 | 27 |  |  |  |  |
| Cc1ccsc1C(=CCCN(C)[C@@H]1CCCC[C@@H]1CO)c1sccc1C | 133 | 239 | 178 | 34.8 |  |  |  |  |
| CN(CCON=C(c1ccccc1)c1ccccc1)[C@H]1CCCC[C@H]1CO | 295 | 415 | 136 | 49.1 |  |  |  |  |
| CN(CCON=C(c1ccccc1)c1ccccc1)[C@@H]1CCCC[C@@H]1CO | 349 | 426 | 341 | 76.6 |  |  |  | 77.6 |
| CN(CCC=C1c2ccccc2CCc2ccccc21)[C@H]1CCCC[C@H]1CO | 148 | 191 | 126 | 28.3 |  |  |  |  |
| CN(CCC=C1c2ccccc2CCc2ccccc21)[C@@H]1CCCC[C@@H]1CO | 153 | 286 | 171 | 50 |  |  |  |  |
| CN(CCOC(c1ccc(C(F)(F)F)cc1)c1ccc(C(F)(F)F)cc1)[C@H]1CCCC[C@H]1CO | 328 | 359 | 181 | 133 |  |  |  |  |
| CN(CCOC(c1ccc(C(F)(F)F)cc1)c1ccc(C(F)(F)F)cc1)[C@@H]1CCCC[C@@H]1CO | 119 | 223 | 866 | 63.3 |  |  |  |  |
| CCOC(=O)[C@@H]1CCCC[C@@H]1N(C)CCC=C(c1sccc1C)c1sccc1C | 602 | 801 | 835 | 217 |  |  |  |  |
| CCOC(=O)[C@H]1CCCC[C@H]1N(C)CCON=C(c1ccccc1)c1ccccc1 | 1050 | 1240 | 836 | 114 |  |  |  |  |
| CCOC(=O)[C@@H]1CCCC[C@@H]1N(C)CCC=C1c2ccccc2CCc2ccccc21 | 1340 | 1370 | 1670 | 375 |  |  |  |  |
| CCOC(=O)[C@H]1CCCC[C@H]1N(C)CCC=C1c2ccccc2CCc2ccccc21 | 1400 | 1190 | > 1000 | 444 | 1740 |  |  |  |
| CCOC(=O)[C@@H]1CCCC[C@@H]1N(C)CCOC(c1ccc(C(F)(F)F)cc1)c1ccc(C(F)(F)F)cc1 | 652 | 508 | 1470 | 417 |  |  |  |  |
